Test results: patent publication US20240101749A1, “RESIN COMPOSITION” (4D MEDICINE LIMITED, priority 2021, published 2024)

Columns and labels:
[1] = UV-vis absorption spectrum in acetone; format: physicochemical
Procedure: Referring now to FIG. 1B, there is shown a synthetic pathway to Reactive Diluent 1, 2, and 3. […] Reactive diluents of the invention are non-white coloured.
The spectra 2a and 2b of Reactive Diluent 3 were recorded in spectroscopy grade acetone, diluted from 1M stock solutions down to 10 μM using serial dilutions. Absorption behaviour was examined from 200 nm to 800 nm, at 1 nm increments, using a ThermoFisher 350 UV-vis spectrophotometer (ThermoFisher Scientific, UK). Absorption maxima at 365, 405, 455, and 500 nm were recorded for comparison.
(§1) Referring also to FIG. 3, there is shown a series of graphs illustrating the absorption behaviour of the resin components in spectroscopy grade acetone, diluted from 1 M stock solutions down to 10 μM using serial dilutions. Absorption behaviour was examined from 200 nm to 800 nm, at 1 nm increments, with absorption maxima quantified at 365, 405, 455, and 500 nm, as indicated in the box in each graph.

[2] = Concentration at which Reactive Diluent 3 acts as a photoinhibitor (absorption vs concentration, inflection point); format: physicochemical
Procedure: as §1
This was used to determine the concentration at which Reactive Diluent 3 would act as a photoinhibitor for wavelengths of interest. At 365 nm, the inflection point of the logarithmic plot of the linear fit was located at ca 0.015M; 405 nm inflection point was located at 0.0131M; 450 nm inflection point was found at 0.099M; 500 nm inflection point was located at 0.1312M.

concentration needed in a resin composition to function as a photoinhibitor [2] | inflection point of the logarithmic plot of the linear fit ([2]; 365 nm, acetone) [M] | inflection point ([2]; 405 nm, acetone) [M] | inflection point ([2]; 450 nm, acetone) [M] | inflection point ([2]; 500 nm, acetone) [M] | Compound | absorption maximum (λmax) [1]
at least 0.015 M | ~0.015 | 0.0131 | 0.099 | 0.1312 | C=CCN1C(=O)CC(=O)N(CC2(C)CC(N3C(=O)CC(=O)N(CC=C)C3=O)CC(C)(C)C2)C1=O (centres unmarked) [Reactive Diluent 3] | ca. 450 nm
 |  |  |  |  | C=CCNC(=O)NCC1(C)CC(NC(=O)NCC=C)CC(C)(C)C1 (centres unmarked) [Reactive Diluent 2] | do not exhibit an absorption maximum (λmax) of between 350 and 520 nm
 |  |  |  |  | C=CCOC(=O)NCC1(C)CC(NC(=O)OCC=C)CC(C)(C)C1 (centres unmarked) [Reactive Diluent 1] | do not exhibit an absorption maximum (λmax) of between 350 and 520 nm
